Data: patent US8143263B2, “Therapeutic agents” (Astrazeneca AB, priority 2008, dated 2012)

Target: T1, recombinant human pancreatic GLK (Homo sapiens, UniProt P35557)
T1 sequence (P35557 1-465): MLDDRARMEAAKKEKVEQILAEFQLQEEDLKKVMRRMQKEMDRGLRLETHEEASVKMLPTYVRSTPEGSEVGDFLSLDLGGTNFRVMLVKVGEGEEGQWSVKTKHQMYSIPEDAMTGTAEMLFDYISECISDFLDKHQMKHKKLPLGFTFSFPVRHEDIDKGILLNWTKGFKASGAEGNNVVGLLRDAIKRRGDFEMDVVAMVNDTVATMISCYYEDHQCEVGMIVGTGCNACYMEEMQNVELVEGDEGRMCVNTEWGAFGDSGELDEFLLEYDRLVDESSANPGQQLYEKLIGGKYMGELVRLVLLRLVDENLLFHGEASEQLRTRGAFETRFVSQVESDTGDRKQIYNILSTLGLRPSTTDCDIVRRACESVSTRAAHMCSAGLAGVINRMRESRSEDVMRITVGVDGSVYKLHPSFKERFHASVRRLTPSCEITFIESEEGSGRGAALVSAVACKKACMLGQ
Experiment: biochemical

| SMILES | EC50 |
| --- | --- |
| Cc1ccc(NC(=O)[C@H](COCCO)Oc2ncnc3c2cnn3-c2cc(C#N)ccc2C)nc1 [Example 184, (2S)-2-(1-(5-cyano-2-methylphenyl)-1H-pyrazolo[3,4-d]pyrimidin-4-yloxy)-3-(2-hydroxyethoxy)-N-(5-methylpyridin-2-yl)propanamide] | 1500 nM |
| C[C@@H](CO)OC[C@H](Oc1ncnc2c1cnn2-c1ncccc1Cl)C(=O)Nc1ccc(F)cn1 [Example 192, (2S)-2-(1-(3-chloropyridin-2-yl)-1H-pyrazolo[3,4-d]pyrimidin-4-yloxy)-N-(5-fluoropyridin-2-yl)-3-((S)-1-hydroxypropan-2-yloxy)propanamide] | 360 nM |
| CCOC[C@H](Oc1ncnc2c1cnn2-c1ncccc1Cl)C(=O)Nc1ccc(C(=O)N(C)C)cn1 [Example 147, 6-[[(2S)-2-[1-(3-chloro-2-pyridyl)pyrazolo[4,5-e]pyrimidin-4-yl]oxy-3-ethoxy-propanoyl]amino]-N,N-dimethyl-pyridine-3-carboxamide] | 7800 nM |
| Cc1ccc(NC(=O)[C@H](COC(C)C)Oc2ncnc3c2cnn3-c2ccccc2S(C)(=O)=O)nc1 [Example 129, (2S)-3-isopropoxy-N-(5-methylpyridin-2-yl)-2-(1-(2-(methylsulfonyl)phenyl)-1H-pyrazolo[3,4-d]pyrimidin-4-yloxy)propanamide] | 1300 nM |
| O=C(Nc1ccc(F)cn1)[C@H](CCO)Oc1ncnc2c1cnn2-c1ncccc1Cl [Example 143d, (2S)-2-[1-(3-chloro-2-pyridyl)pyrazolo[4,5-e]pyrimidin-4-yl]oxy-N-(5-fluoro-2-pyridyl)-4-hydroxy-butanamide] | 590 nM |
| COCC[C@H](Oc1ncnc2c1cnn2-c1ccccc1OC)C(=O)Nc1ccc(C)cn1 [Example 24, (S)-4-methoxy-2-{[1-(2-methoxyphenyl)-1H-pyrazolo[3,4-d]pyrimidin-4-yl]oxy}-N-(5-methylpyridin-2-yl)butanamide] | 120 nM |
| CCOC[C@H](Oc1ncnc2c1cnn2-c1ncccc1C)C(=O)Nc1ccc(Cl)cn1 [Example 128a, (2S)—N-(5-chloropyridin-2-yl)-3-ethoxy-2-(1-(3-methylpyridin-2-yl)-1H-pyrazolo[3,4-d]pyrimidin-4-yloxy)propanamide] | 620 nM |
| COCC[C@@H](Oc1ncnc2c1cnn2-c1ccccc1OC)C(=O)Nc1ccc(C)cn1 [Example 23, (R)-4-Methoxy-2-{[1-(2-methoxyphenyl)-1H-pyrazolo[3,4-d]pyrimidin-4-yl]oxy}-N-(5-methylpyridin-2-yl)butanamide] | ≥ 100000 nM |
| Cc1ccc(NC(=O)[C@H](CCN(C)C)Oc2ncnc3c2cnn3-c2ccccc2Cl)nc1 [Example 47, (2S)-2-{[1-(2-chlorophenyl)-1H-pyrazolo[3,4-d]pyrimidin-4-yl]oxy}-4-(dimethylamino)-N-(5-methylpyridin-2-yl)butanamide] | 1000 nM |
| Cc1cccnc1-n1ncc2c(O[C@@H](COC(C)C)C(=O)Nc3ccc(C#N)cn3)ncnc21 [Example 127a, (2S)—N-(5-cyanopyridin-2-yl)-3-isopropoxy-2-(1-(3-methylpyridin-2-yl)-1H-pyrazolo[3,4-d]pyrimidin-4-yloxy)propanamide] | 1100 nM |
| N#Cc1cccc(Cl)c1-n1ncc2c(O[C@@H](CN3CC(O)C3)C(=O)Nc3ccc(Cl)cn3)ncnc21 [Example 240, (2S)-2-[1-(2-chloro-6-cyano-phenyl)pyrazolo[3,4-d]pyrimidin-4-yl]oxy-N-(5-chloro-2-pyridyl)-3-(3-hydroxyazetidin-1-yl)propanamide] | 450 nM |
| Cc1c(F)cccc1-n1ncc2c(O[C@@H](COCCO)C(=O)Nc3ccc(Cl)cn3)ncnc21 [Example 170, (2S)—N-(5-chloropyridin-2-yl)-2-[1-(3-fluoro-2-methylphenyl)pyrazolo[4,5-e]pyrimidin-4-yl]oxy-3-(2-hydroxyethoxy)propanamide] | 1500 nM |
| Cc1ccc(NC(=O)[C@H](COCCO)Oc2ncnc3c2cnn3-c2ccccc2Cl)nc1 [Example 194, (2S)-2-(1-(2-chlorophenyl)-1H-pyrazolo[3,4-d]pyrimidin-4-yloxy)-3-(2-hydroxyethoxy)-N-(5-methylpyridin-2-yl)propanamide] | 580 nM |
| Cc1ccc(NC(=O)[C@H](COCCO)Oc2ncnc3c2cnn3Cc2ccccc2)nc1 [Example 181, (S)-2-(1-benzyl-1H-pyrazolo[3,4-d]pyrimidin-4-yloxy)-3-(2-hydroxyethoxy)-N-(5-methylpyridin-2-yl)propanamide] | 3300 nM |
| N#Cc1ccc(NC(=O)[C@H](COCCO)Oc2ncnc3c2cnn3-c2cccc(Cl)c2Cl)nc1 [Example 203, (2S)—N-(5-cyanopyridin-2-yl)-2-(1-(2,3-dichlorophenyl)-1H-pyrazolo[3,4-d]pyrimidin-4-yloxy)-3-(2-hydroxyethoxy)propanamide] | 830 nM |
| CC(C)OC[C@H](Oc1ncnc2c1cnn2-c1ccccc1Cl)C(=O)Nc1ccccn1 [Example 118a, (2S)-2-[1-(2-chlorophenyl)pyrazolo[4,5-e]pyrimidin-4-yl]oxy-3-isopropoxy-N-(2-pyridyl)propanamide] | 120 nM |

| SMILES | EC50 |
| --- | --- |
| N#Cc1cccc(Cl)c1-n1ncc2c(O[C@@H](COCCO)C(=O)Nc3ccccn3)ncnc21 [Example 238, (2S)-2-[1-(2-chloro-6-cyano-phenyl)pyrazolo[3,4-d]pyrimidin-4-yl]oxy-3-(2-hydroxyethoxy)-N-(2-pyridyl)propanamide] | 420 nM |
| CC(=O)NCC(Oc1ncnc2c1cnn2-c1ccccc1Cl)C(=O)Nc1nc(C)cs1 (stereo not shown) [Example 48, 3-Acetamido-2-{[1-(2-chlorophenyl)-1h-pyrazolo[3,4-d]pyrimidin-4-yl]oxy}-n-(4-methyl-1,3-thiazol-2-yl)propanamide] | 11000 nM |
| O=C(Nc1ccccn1)[C@H](COCCO)Oc1ncnc2c1cnn2-c1c(Cl)cccc1Cl [Example 250, (2S)-2-[1-(2,6-dichlorophenyl)pyrazolo[3,4-d]pyrimidin-4-yl]oxy-3-(2-hydroxyethoxy)-N-(2-pyridyl)propanamide] | 230 nM |
| Cc1ccc(NC(=O)[C@H](COCCO)Oc2ncnc3c2cnn3-c2cccc(Cl)c2C)nc1 [Example 167, (2S)-2-[1-(3-chloro-2-methylphenyl)pyrazolo[4,5-e]pyrimidin-4-yl]oxy-3-(2-hydroxyethoxy)-N-(5-methylpyridin-2-yl)propanamide] | 1100 nM |
| Cc1cnc(NC(=O)[C@@H](Oc2ncnc3c2cnn3-c2ncccc2Cl)C(C)C)cn1 [Example 94, (2S)-2-(1-(3-chloropyridin-2-yl)-1H-pyrazolo[3,4-d]pyrimidin-4-yloxy)-3-methyl-N-(5-methylpyrazin-2-yl)butanamide] | 9200 nM |
| COC[C@H](Oc1ncnc2c1cnn2-c1ccccc1C#N)C(=O)Nc1ccc(C)cn1 [Example 97, (2S)-2-(1-(2-cyanophenyl)-1H-pyrazolo[3,4-d]pyrimidin-4-yloxy)-3-methoxy-N-(5-methylpyridin-2-yl)propanamide] | 1200 nM |
| Cc1ccc(C)c(-n2ncc3c(O[C@@H](COCCO)C(=O)Nc4ccc(Cl)cn4)ncnc32)c1 [Example 179, (2S)—N-(5-chloropyridin-2-yl)-2-(1-(2,5-dimethylphenyl)-1H-pyrazolo[3,4-d]pyrimidin-4-yloxy)-3-(2-hydroxyethoxy)propanamide] | 620 nM |
| CC(C)OCC(Oc1ncnc2c1cnn2-c1ccccc1Cl)C(=O)Nc1cnccn1 (stereo not shown) [Example 108, 2-[1-(2-Chlorophenyl)pyrazolo[4,5-e]pyrimidin-4-yl]oxy-3-isopropoxy-N-pyrazin-2-yl-propanamide] | 1300 nM |
| C[C@H](CO)OC[C@H](Oc1ncnc2c1cnn2-c1ccccc1Cl)C(=O)Nc1ccc(C#N)cn1 [Example 252, (2S)-2-[1-(2-chlorophenyl)pyrazolo[3,4-d]pyrimidin-4-yl]oxy-N-(5-cyano-2-pyridyl)-3-[(1R)-2-hydroxy-1-methyl-ethoxy]propanamide] | 450 nM |
| COc1ccccc1-n1ncc2c(O[C@H](CCS(C)(=O)=O)C(=O)Nc3ccc(C)cn3)ncnc21 [Example 11, (R)-2-{[1-(2-methoxyphenyl)-1H-pyrazolo[3,4-d]pyrimidin-4-yl]oxy}-N-(5-methylpyridin-2-yl)-4-(methylsulfonyl)butanamide] | ≥ 100000 nM |
| COCCC(Oc1ncnc2c1cnn2-c1cccc(OC)c1)C(=O)Nc1ccc(C)cn1 (stereo not shown) [Example 13, 4-methoxy-2-{[1-(3-methoxyphenyl)-1H-pyrazolo[3,4-d]pyrimidin-4-yl]oxy}-N-(5-methylpyridin-2-yl)butanamide] | 1400 nM |
| O=C(Nc1ccc(F)cn1)[C@H](CN1CC(O)C1)Oc1ncnc2c1cnn2-c1ncccc1Cl [Example 243, (2S)-2-[1-(3-chloro-2-pyridyl)pyrazolo[3,4-d]pyrimidin-4-yl]oxy-N-(5-fluoro-2-pyridyl)-3-(3-hydroxyazetidin-1-yl)propanamide] | 570 nM |
| Cc1cnc(NC(=O)[C@H](COC2CCC2)Oc2ncnc3c2cnn3-c2cccnc2C)cn1 [Example 149, (2S)-3-cyclobutoxy-N-(5-methylpyrazin-2-yl)-2-(1-(2-methylpyridin-3-yl)-1H-pyrazolo[3,4-d]pyrimidin-4-yloxy)propanamide] | 660 nM |
| Cc1ccc(NC(=O)C(CCS(C)(=O)=O)Oc2ncnc3c2cnn3C)nc1 (stereo not shown) [2-(1-methylpyrazolo[4,5-e]pyrimidin-4-yl)oxy-N-(5-methyl-2-pyridyl)-4-methylsulfonyl-butanamide] | > 100000 nM |
| COC[C@H](Oc1ncnc2c1cnn2-c1ccccc1Cl)C(=O)Nc1ccc(C)cn1 [Example 3, (S)-2-{[1-(2-chlorophenyl)-1H-pyrazolo[3,4-d]pyrimidin-4-yl]oxy}-3-methoxy-N-(5-methylpyridin-2-yl)propanamide] | 170 nM |
